Test system: GSK3β
Assay: Inhibition of GSK3β during Neurog2-induced neuronal conversion of U251 cells
Type: cell-based, human

SMILES | neuronal conversion efficiency of Neurog2-infected U251 cells (CHIR99021 5 μM for 20 days) | neuronal conversion efficiency of Neurog2-infected U251 cells (TWS119 10 μM for 20 days)
Cc1c[nH]c(-c2cnc(NCCNc3ccc(C#N)cn3)nc2-c2ccc(Cl)cc2Cl)n1 [CHIR99021] | decreased neuronal conversion efficiency | 
Nc1cccc(-c2cc3c(Oc4cccc(O)c4)ncnc3[nH]2)c1 [TWS119] |  | decreased neuronal conversion efficiency
